This note sets out measurements from patent US9206156B2, “Substituted indole derivatives” (GRÜNENTHAL GMBH, priority 2008, dated 2015).

The target of one assay is T1, human μ-opiate receptor (Homo sapiens, UniProt P35372).
T1 construct: purchased NEN, Zaventem, Belgium RB-HOM; host or cells: CHO-K1 cells (membrane preparation)
As to the kind of experiment: μ-opiate receptor binding assay with [3H] naloxone (WGA-SPA beads). The settings on record: 1 μmol/l test substance, 1 nmol/l [3H] naloxone, CHO-K1 cell membranes expressing human μ-opiate receptor. The procedure, abridged:
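Scintillation proximity readout: [3H]naloxone (1 nmol/l) displacement measured after 90 min, room temperature, on human μ-receptor CHO-K1 membranes in Tris-HCl/azide/BSA buffer; 25 μmol/l naloxone defined non-specific binding. Values are % specific-binding inhibition at 1 μmol/l, or Ki from IC50 (Cheng-Prusoff).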

Another assay concerns the target T2, ORL1 receptor (Homo sapiens, UniProt P41146).
T2 construct: expressed in transfected cells; host or cells: CHO (recombinant CHO-ORL1 cells), membranes
The experiment in a line: ORL1 receptor binding assay with 3H-nociceptin/orphanin FQ (WGA-SPA beads). The settings on record: c=1 μM test substance; 0.5 nM 3H-nociceptin/orphanin FQ; membranes of recombinant CHO-ORL1 cells. An outline of the steps: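 Affinity given as nanomolar Ki or as % inhibition at c=1 μM. Membranes of CHO cells expressing recombinant ORL1 (20 μg protein) were incubated one hour at room temperature with 0.5 nM 3H-nociceptin/orphanin FQ in Hepes 50 mM, pH 7.4, plus MgCl2 and EDTA; bound ligand detected by SPA bead scintillation counting.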

T1 sequence (P35372 whole entry): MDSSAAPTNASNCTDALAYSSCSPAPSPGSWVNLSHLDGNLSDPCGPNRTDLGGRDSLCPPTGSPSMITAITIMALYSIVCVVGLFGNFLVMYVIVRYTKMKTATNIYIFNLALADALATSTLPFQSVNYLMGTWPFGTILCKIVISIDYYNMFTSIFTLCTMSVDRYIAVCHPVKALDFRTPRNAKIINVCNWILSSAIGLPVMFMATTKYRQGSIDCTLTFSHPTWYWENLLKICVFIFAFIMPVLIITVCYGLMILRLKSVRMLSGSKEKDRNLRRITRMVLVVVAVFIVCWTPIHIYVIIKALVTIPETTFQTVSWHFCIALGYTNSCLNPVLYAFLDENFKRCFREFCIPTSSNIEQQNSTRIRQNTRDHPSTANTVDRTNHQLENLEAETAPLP
T2 sequence (P41146 whole entry): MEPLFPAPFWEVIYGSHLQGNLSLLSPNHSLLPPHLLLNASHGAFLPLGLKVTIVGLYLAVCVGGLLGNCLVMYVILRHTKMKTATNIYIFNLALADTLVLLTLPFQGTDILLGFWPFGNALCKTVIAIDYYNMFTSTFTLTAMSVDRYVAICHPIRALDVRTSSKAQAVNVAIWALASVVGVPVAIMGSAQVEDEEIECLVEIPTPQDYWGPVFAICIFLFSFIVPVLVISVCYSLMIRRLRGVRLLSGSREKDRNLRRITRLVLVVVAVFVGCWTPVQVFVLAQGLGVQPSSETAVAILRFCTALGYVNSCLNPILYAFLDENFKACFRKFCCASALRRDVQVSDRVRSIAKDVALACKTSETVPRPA

Regarding `CN(CCCN1CCC(c2ccccc2)(N(C)C)CC1)C(=O)Cc1c[nH]c2cc(F)ccc12` [Example 45, N-(3-(4-(Dimethylamino)-4-phenylpiperidin-1-yl)propyl)-2-(6-fluoro-1H-indol-3-yl)-N-methylacetamide], the values for the inhibition at 1 µM at human μ-opiate receptor and at ORL1 receptor were 82% and 49%, respectively.

For the compound `CCCCC1(N(C)C)CCN(CCN(C)C(=O)C2CCCc3c2[nH]c2ccc(Cl)cc32)CC1` (stereo not drawn) [Example 43, N-(2-(4-Butyl-4-(dimethylamino)piperidin-1-yl)ethyl)-6-chloro-N-methyl-2,3,4,9-tetrahydro-1H-carbazole-1-carboxamide], the inhibition (commonly the percentage by which the read-out fell short of the control) at 1 µM on human μ-opiate receptor amounted to 54%; at ORL1 receptor it was 21%.

With `CC(C)c1ccc2c(CN(C)CCCN3CCC(c4cccs4)(N(C)C)CC3)c[nH]c2c1` [Example 67, 1-(3-(((6-Isopropyl-1H-indol-3-yl)methyl)(methyl)amino)propyl)-N,N-dimethyl-4-(thiophen-2-yl)piperidin-4-amine], the inhibition at 1 µM was 93% at human μ-opiate receptor and 90% on ORL1 receptor.

Regarding `CN(CCCN1CCC(c2cccs2)(N(C)C)CC1)C(=O)c1c[nH]c2ccccc12` [Example 11, N-(3-(4-(Dimethylamino)-4-(thiophen-2-yl)piperidin-1-yl)propyl)-N-methyl-1H-indole-3-carboxamide], the inhibition at 1 µM on human μ-opiate receptor turned out to be 86%; on ORL1 receptor, 80%.

In the case of `COc1ccc2c(c1)c(CN(C)CCN1CCC(c3ccccc3)(N(C)C)CC1)c(C)n2Cc1ccccc1` [Example 193, 1-(2-(((1-benzyl-5-methoxy-2-methyl-1H-indol-3-yl)methyl)(methyl)amino)ethyl)-N,N-dimethyl-4-phenylpiperidin-4-amine], the values for the inhibition at 1 µM on human μ-opiate receptor and at ORL1 receptor were 82% and 68%, respectively.

Turning to `CN(C)C1(c2ccccc2)CCN(C(=O)C2CCCN(C(=O)c3ccc4ccn(C)c4c3)C2)CC1` (stereo not drawn) [Example 128, (4-(dimethylamino)-4-phenylpiperidin-1-yl)(1-(1-methyl-1H-indole-6-carbonyl)piperidin-3-yl) methanone], the values for the inhibition at 1 µM on human μ-opiate receptor and on ORL1 receptor were 56% and 39%, respectively.

As for `CN(CCN1CCC(c2ccccc2)(N2CCCC2)CC1)Cc1ccc2[nH]ccc2c1` [Example 140, N-((1H-indol-5-yl)methyl)-N-methyl-2-(4-phenyl-4-(pyrrolidin-1-yl)piperidin-1-yl)ethanamine], the inhibition at 1 µM came to 54% on human μ-opiate receptor and 17% at ORL1 receptor.

As to `CN(CCN1CCC(c2ccccc2)(N(C)C)CC1)Cc1c[nH]c2ccccc12` [Example 187, 1-(2-(((1H-indol-3-yl)methyl)(methy)amino)ethyl)-N,N-dimethyl-4-phenylpiperidin-4-amine], at human μ-opiate receptor (1 µM), the “% Inhibition (μ) at 1 μM” value is 100%. For the same compound, the “% Inhibition (ORL1) at 1 μM” value at ORL1 receptor was 87%.

Turning to `CN(CCN1CCC(c2ccccc2)(N(C)C)CC1)Cc1c[nH]c2ccc(Br)cc12` [Example 185, 1-(2-(((5-bromo-1H-indol-3-yl)methyl)(methyl)amino)ethyl)-N,N-dimethyl-4-phenylpiperidin-4-amine], the inhibition at 1 µM was determined as 95% on human μ-opiate receptor and 91% at ORL1 receptor.

On to `CN(CCCN1CCC(c2ccccc2)(N(C)C)CC1)C(=O)CCc1cn(C)c2ccccc12` [Example 50, N-(3-(4-(Dimethylamino)-4-phenylpiperidin-1-yl)propyl)-N-methyl-3-(1-methyl-1H-indol-3-yl)propanamide], for which the figures for the inhibition at 1 µM on human μ-opiate receptor and at ORL1 receptor were 79% and 39%, respectively.

Turning to `CN(CCN1CCC(c2ccccc2)(N(C)C)CC1)C(=O)Cc1c[nH]c2cc(F)ccc12` [Example 27, N-(2-(4-(Dimethylamino)-4-phenylpiperidin-1-yl)ethyl)-2-(6-fluoro-1H-indol-3-yl)-N-methylacetamide], the inhibition at 1 µM was 98% on human μ-opiate receptor and 93% on ORL1 receptor.

Take `CN(Cc1ccc2cc[nH]c2c1)C(C(=O)N1CCC(c2cccs2)(N(C)C)CC1)c1ccccc1` (stereo not drawn) [Example 150, 2-(((1H-indol-6-yl)methyl)(methyl)amino)-1-(4-(dimethylamino)-4-(thiophen-2-yl)pipendin-1-yl)-2-phenylethanone]: the “% Inhibition (μ) at 1 μM” value on human μ-opiate receptor is reported as 54%. Moreover, the “% Inhibition (ORL1) at 1 μM” value on ORL1 receptor is listed as 76%.

Take `CN(C)C1(c2ccccc2)CCN(C(=O)C2CCCN(Cc3c[nH]c4ccccc34)C2)CC1` (stereo not drawn) [Example 151, (1-((1H-indol-3-yl)methyl)piperidin-3-yl)(4-(dimethylamino)-4-phenylpiperidin-1-yl)methanone]: the inhibition at 1 µM on human μ-opiate receptor turned out to be 83%; on ORL1 receptor, 52%.

For `CN(CCN1CCC(c2ccccc2)(N(C)C)CC1)C(=O)c1cc2cc(F)ccc2[nH]1` [Example 3, N-(2-(4-(Dimethylamino)-4-phenylpiperidin-1-yl)ethyl)-5-fluoro-N-methyl-1H-indol-2-amide], the “% Inhibition (μ) at 1 μM” value on human μ-opiate receptor (1 µM) was 92%. Also, at ORL1 receptor, the “% Inhibition (ORL1) at 1 μM” value is given as 90%.

Take `CN(C)C1(c2ccccc2)CCN(C(=O)CCNCc2ccc3cc[nH]c3c2)CC1` [Example 145, 3-((1H-indol-6-yl)methylamino)-1-(4-(dimethylamino)-4-phenylpiperidin-1-yl)propan-1-one]: the results for the inhibition at 1 µM on human μ-opiate receptor and on ORL1 receptor were 80% and 45%, respectively.

In the case of `CN(C)c1ccc2cc(C(=O)N3CCCC(C(=O)N4CCC(c5ccccc5)(N(C)C)CC4)C3)[nH]c2c1` (stereo not drawn) [Example 136, (6-(dimethylamino)-1H-indol-2-yl)(3-(4-(dimethylamino)-4-phenylpiperidine-1-carbonyl)piperidin-1-yl)methanone], the inhibition at 1 µM at human μ-opiate receptor came out at 46%; at ORL1 receptor, 24%.

Consider `CN(CCCN1CCC(c2cccs2)(N(C)C)CC1)C(=O)c1ccc2cc[nH]c2c1` [Example 17, N-(3-(4-(Dimethylamino)-4-(thiophen-2-yl)piperidin-1-yl)propyl)-N-methyl-1H-indole-6-carboxamide], for which the results for the inhibition at 1 µM at human μ-opiate receptor and on ORL1 receptor were 70% and 38%, respectively.

Turning to `CN(CCN1CCC(c2ccccc2)(N(C)C)CC1)Cc1cccc2[nH]ccc12` [Example 195, 1-(2-(((1H-indol-4-yl)methyl)(methy)amino)ethyl)-N,N-dimethyl-4-phenylpiperidin-4-amine], the “% Inhibition (μ) at 1 μM” value at human μ-opiate receptor (1 µM) stood at 78%. Also, the “% Inhibition (ORL1) at 1 μM” value on ORL1 receptor was 56%.

Turning to `COc1ccc2c(c1)c(CN(C)CCN1CCC(c3ccccc3)(N(C)C)CC1)c(C)n2Cc1ccccc1` [Example 77, 1-(2-(((1-Benzyl-5-methoxy-2-methyl-1H-indol-3-yl)methyl)(methyl)amino)ethyl)-N,N-dimethyl-4-phenylpiperidin-4-amine], at human μ-opiate receptor (1 µM), the “% Inhibition (μ) at 1 μM” value was 89%. For the same compound, on ORL1 receptor, the “% Inhibition (ORL1) at 1 μM” value came to 60%.

For the compound `CN(CCN1CCC(c2ccccc2)(N(C)C)CC1)C(=O)c1ccc2cc[nH]c2c1` [Example 18, N-(2-(4-(Dimethylamino)-4-phenylpiperidin-1-yl)ethyl)-N-methyl-1H-indole-6-carboxamide], the inhibition at 1 µM on human μ-opiate receptor was 95%; at ORL1 receptor it was 82%.

`CN(C(=O)C1CCCc2c1[nH]c1ccc(Cl)cc21)C(C(=O)N1CCC(c2cccs2)(N(C)C)CC1)c1ccccc1` (stereo not drawn) [Example 134, 6-chloro-N-(2-(4-(dimethylamino)-4-(thiophen-2-yl)piperidin-1-yl)-2-oxo-1-phenylethyl)-N-methyl-2,3,4,9-tetrahydro-1H-carbazole-1-carboxamide]: the results for the inhibition at 1 µM at human μ-opiate receptor and on ORL1 receptor were 34% and 29%, respectively.

Consider `CN(CCN1CCC(c2ccccc2)(N2CCCC2)CC1)C(=O)Cc1c[nH]c2ccc(Br)cc12` [Example 62, 2-(5-Bromo-1H-indol-3-yl)-N-methyl-N-(2-(4-phenyl-4-(pyrrolidin-1-yl)piperidin-1-yl)ethyl)acetamide], for which the inhibition at 1 µM at human μ-opiate receptor is 57%; at ORL1 receptor it was 14%.

On to `CN(C)C1(c2cccs2)CCN(CCNCc2ccc3[nH]ccc3c2)CC1` [Example 69, 1-(2-((1H-Indol-5-yl)methylamino)ethyl)-N,N-dimethyl-4-(thiophen-2-yl)piperidin-4-amine], for which the inhibition at 1 µM at human μ-opiate receptor was found to be 96%; on ORL1 receptor it was 90%.

For `CN(C)C1(c2ccccc2)CCN(C(=O)C2CN(Cc3cccc4[nH]ccc34)c3ccccc32)CC1` (stereo not drawn) [Example 175], the “% Inhibition (μ) at 1 μM” value at human μ-opiate receptor is given as 70%. Moreover, at ORL1 receptor, the “% Inhibition (ORL1) at 1 μM” value was 10%.

As to `CCCCC1(N(C)C)CCN(CCN(C)C(=O)CCc2c[nH]c3ccccc23)CC1` [Example 60, N-(2-(4-Butyl-4-(dimethylamino)piperidin-1-yl)ethyl)-3-(1H-indol-3-yl)-N-methylpropanamide], the inhibition at 1 µM is 81% on human μ-opiate receptor and 45% on ORL1 receptor.

Turning to `CCCCC1(N(C)C)CCN(CCN(C)Cc2cccc3cc[nH]c23)CC1` [Example 157, 1-(2-(((1H-indol-7-yl)methyl)(methy)amino)ethyl)-4-butyl-N,N-dimethylpiperidin-4-amine], on human μ-opiate receptor, the “% Inhibition (μ) at 1 μM” value stood at 96%. Besides, the “% Inhibition (ORL1) at 1 μM” value on ORL1 receptor is on record as 30%.

On to `CN(C)C1(c2cccs2)CCN(C(=O)CNC(=O)c2cccc3c2ccn3C)CC1` [Example 135, N-(2-(4-(dimethylamino)-4-(thiophen-2-yl)piperidin-1-yl)-2-oxoethyl)-1-methyl-1H-indole-4-carboxamide], for which the inhibition at 1 µM worked out at 61% at human μ-opiate receptor and 27% on ORL1 receptor.
